From patent US6716862B2, “5-(Substituted)-5-(substitutedsulfonyl or sulfanyl) thiazolidine-2,4-diones useful for inhibition of farnesyl-protein transferase” (Wyeth Holdings Corporation, priority 2001, dated 2004)

Tests used:
[1] = biological target: FPTase (farnesyl-protein transferase) with H-Ras as substrate for farnesylation (UniProt P29702+P49355); experiment: in vitro FTase Inhibition Assay (H-Ras substrate); format: biochemical
Procedure: Enzyme assay: FPTase inhibition in vitro assay was performed according to James, G. L., Brown, M. S., and Goldstein, J. L., Methods in Enzymology, 1995, 255, 38-46; and Garcia, M. A., et al., J. Biol. Chem., 1993, 268,18415-18420.
Materials—Purified FPTase (Moomaw, J. F. and Casey, P. J., J. Biol. Chem., 1992, 267, 17438-17443), purified His6-Ras, inhibitor compounds at 10 mg/ml or 10 mM in 100% DMSO, ^3H-FPP (50,000 dpm/pmol) Amersham, TCA/SDS (6%/2%), TCA (6%), Glass fiber filters ([…]), vacuum manifold or 96 well filtration plates.
Methods—1. Dilute FPTase inhibitors from stock solutions to 2.5× in 2.5% DMSO, 10 mM DTT, 0.5% octyl-B-glucoside. 2. Solution #1 is added to FPTase reaction in a volume of […]. 3. Standard reaction mix, […], contains 50 mM Tris (7.5),[…], 3 mM MgCl2, 20 mM KCl, 5 mM DTT, 0.2% octyl-B-glucoside, 1% DMSO, […], 10 ng FPTase, and various concentrations of FPTase inhibitors. 4. Incubate for 30-90 min at 25° C. 5. Stop reactions with TCA/SDS (6%/2%), hold at 4° C. for 45-60 min. 6. Filter by manifold or 96 well plate, wash filter 3-5× with TCA (6%). 7. Add scintillant to filters, measure ^3H-FPP incorporation into Ras protein.
Analysis of Results—Percent inhibition by test compounds is determined by the following:
(cpm from precipitated Ras with test compounds)−(background cpm)×100=% inhibition.
(cpm from precipitated Ras without test compounds)−(background cpm)

IC50 [1] | melting point | Activity* (% inhib. at 10 μM) [1] | SMILES
2250 nM | 202 to 204 °C |  | Cc1ccc(S(=O)(=O)C2(Cc3ccc(OCCc4nc(-c5ccccc5)oc4C)cc3)SC(=O)NC2=O)cc1 (stereo not drawn) [Example 1, 5-(4-[2-(5-Methyl-2-phenyloxazol-4-yl)ethoxy]benzyl)-5-(4-methylbenzenesulfonyl)thiazolidine-2,4-dione]
6500 nM | 236 to 237 °C |  | Cc1ccc(S(=O)(=O)C2(Cc3ccc(Br)cc3F)SC(=O)NC2=O)cc1 (stereo not drawn) [Example 2, 5-(4-Bromo-2-fluorobenzyl)-5-(4-methylbenzenesulfonyl)thiazolidine-2,4-dione]
 | 183 to 184 °C | (1%) | Cc1ccc(S(=O)(=O)C2(Cc3ccc(Cl)c(Cl)c3)SC(=O)NC2=O)cc1 (stereo not drawn) [Example 3, 5-(3,4-Dichlorobenzyl)-5-(4-methylbenzenesulfonyl)thiazolidine-2,4-dione]
 | 195 to 197 °C | (1%) | O=C1NC(=O)C(Cc2ccc(Br)cc2F)(S(=O)(=O)c2ccc3ccccc3c2)S1 (stereo not drawn) [Example 4, 5-(4-Bromo-2-fluorobenzyl)-5-(naphthalene-2-sulfonyl)thiazolidine-2,4-dione]
 | 133 to 136 °C | (−2%) | Cc1oc(-c2ccccc2)nc1CCOc1ccc(CC2(S(=O)(=O)c3ccc4ccccc4c3)SC(=O)NC2=O)cc1 (stereo not drawn) [Example 5, 5-(4-[2-(5-Methyl-2-phenyloxazol-4-yl)ethoxy]benzyl)-5-(naphthalene-2-sulfonyl)thiazolidine-2,4-dione]
 | 146 to 152 °C | (21%) | COc1ccc(S(=O)(=O)C2(Cc3ccccc3)SC(=O)NC2=O)cc1 (stereo not drawn) [Example 6, 5-Benzyl-5-(4-methoxybenzenesulfonyl)thiazolidine-2,4-dione]
2500 nM |  |  | COc1ccc(S(=O)(=O)C2(Cc3ccccc3)SC(=O)N(CC(=O)NO)C2=O)cc1 (stereo not drawn) [Example 7, 2-[5-Benzyl-5-(4-methoxybenzenesulfonyl)-2,4-dioxothiazolidin-3-yl]-N-hydroxyacetamide]
1300 nM |  |  | COc1ccc(C2(c3cccc(CC4(Sc5ccc(C)cc5)SC(=O)NC4=O)c3)OCCO2)cc1 (stereo not drawn) [Example 8, 5-(3-[2-(4-Methoxyphenyl)[1,3]dioxolan-2-yl]benzyl)-5-(4-methylbenzenesulfanyl)thiazolidine-2,4-dione]
1200 nM |  |  | COc1ccc(C2(c3cccc(CC4(S(=O)(=O)c5ccc(C)cc5)SC(=O)NC4=O)c3)OCCO2)cc1 (stereo not drawn) [Example 9, 5-(3-[2-(4-Methoxyphenyl)[1,3]dioxolan-2-yl]benzyl)-5-(4-methylbenzenesulfonyl)thiazolidine-2,4-dione]
4250 nM |  |  | COc1ccc(C(=O)c2cccc(CC3(S(=O)(=O)c4ccc(C)cc4)SC(=O)NC3=O)c2)cc1 (stereo not drawn) [Example 10, 5-(3-(4-methoxybenzoyl)benzyl)-5-(4-methylbenzenesulfonyl)thiazolidine-2,4-dione]
2500 nM |  |  | COc1ccc(C(=O)c2cccc(CC3(Sc4ccc(C)cc4)SC(=O)NC3=O)c2)cc1 (stereo not drawn) [Example 11, 5-(3-(4-methoxybenzoyl)benzyl)-5-(4-methylbenzenesulfanyl)thiazolidine-2,4-dione]
3700 nM |  |  | COc1ccc(C(O)c2cccc(CC3(Sc4ccc(C)cc4)SC(=O)NC3=O)c2)cc1 (stereo not drawn) [Example 12, 5-(3-[Hydroxy(4-methoxyphenyl)methyl]-benzyl)-5-(4-methylbenzenesulfanyl)thiazolidine-2,4-dione]
 |  | (28%) | Cc1ccc(S(=O)(=O)C2(Cc3ccc(Br)cc3)SC(=O)NC2=O)cc1 (stereo not drawn) [Example 13]
77 nM |  |  | Cc1ccc(S(=O)(=O)C2(Cc3ccc(-c4ccccc4C#N)cc3)SC(=O)NC2=O)cc1 (stereo not drawn) [Example 14, 5-[2′-cyanobiphen-4-ylmethyl]-5-(4-methylbenzenesulfonyl)thiazolidine-2,4-dione]
 |  | (4%) | Cc1ccc(S(=O)(=O)C2(Cc3ccc(-c4ccccc4-c4nnn[nH]4)cc3)SC(=O)NC2=O)cc1 (stereo not drawn) [Example 15, 5-[2′-(1H-Tetrazol-5-yl)biphen-4-ylmethyl]-5-(4-methylbenzenesulfonyl)thiazolidine-2,4-dione]
350 nM |  |  | COc1ccc(S(=O)(=O)C2(Cc3ccc(-c4ccccc4C#N)cc3)SC(=O)NC2=O)cc1 (stereo not drawn) [Example 16, 5-[2′-cyanobiphen-4-ylmethyl]-5-(4-methoxybenzenesulfonyl)thiazolidine-2,4-dione]
2900 nM |  |  | COc1ccc(Cc2cccc(CC3(Sc4ccc(C)cc4)SC(=O)NC3=O)c2)cc1 (stereo not drawn) [Example 17, 5-[3-(4-Methoxybenzyl)benzyl]-5-(4-methylbenzenesulfanyl)thiazolidine-2,4-dione]
4500 nM |  |  | Cc1ccc(SC2(Cc3cccc(C4(c5cccs5)OCCO4)c3)SC(=O)NC2=O)cc1 (stereo not drawn) [Example 18, 5-[3-(2-Thiophen-2-yl[1,3]dioxolan-2-yl)benzyl]-5-(4-methylbenzenesulfanyl)thiazolidine-2,4-dione]
2800 nM |  |  | Cc1ccc(SC2(Cc3cccc(C(=O)c4cccs4)c3)SC(=O)NC2=O)cc1 (stereo not drawn) [Example 19, 5-[3-(Thiophene-2-carbonyl)benzyl]-5-(4-methylbenzenesulfanyl)thiazolidine-2,4-dione]
1700 nM | 119 to 122 °C |  | COc1ccc(S(=O)(=O)C2(Cc3ccc(-c4ccccc4)cc3)SC(=O)NC2=O)cc1 (stereo not drawn) [Example 20, 5-Biphen-4-ylmethyl-5-(4-methoxybenzenesulfonyl)thiazolidine-2,4-dione]
1000 nM | 197 to 200 °C |  | COc1ccc(S(=O)(=O)C2(Cc3ccc(-c4ccc(Cl)cc4)cc3)SC(=O)NC2=O)cc1 (stereo not drawn) [Example 21, 5-(4′-Chlorobiphen-4-ylmethyl)-5-(4-methoxybenzenesulfonyl)thiazolidine-2,4-dione]
2500 nM |  |  | COc1ccc(S(=O)(=O)C2(Cc3ccc(-c4cccc(C(F)(F)F)c4)cc3)SC(=O)NC2=O)cc1 (stereo not drawn) [Example 22, 5-(4-Methoxybenzenesulfonyl)-5-(3′-(trifluoromethyl)biphen-4-ylmethyl)thiazolidine-2,4-dione]
> 10000 nM | 122 to 125 °C |  | COc1ccc(S(=O)(=O)C2(Cc3ccc(-c4cc(C(F)(F)F)cc(C(F)(F)F)c4)cc3)SC(=O)NC2=O)cc1 (stereo not drawn) [Example 23, 5-(3′,5′-Bis(trifluoromethyl)biphen-4-ylmethyl)-5-(4-methoxybenzenesulfonyl)thiazolidine-2,4-dione]
740 nM | 104 to 107 °C |  | COc1ccc(S(=O)(=O)C2(Cc3ccc(-c4ccc(Cl)cc4Cl)cc3)SC(=O)NC2=O)cc1 (stereo not drawn) [Example 24, 5-(2′,4′-Dichlorobiphen-4-ylmethyl)-5-(4-methoxybenzenesulfonyl)thiazolidine-2,4-dione]
3500 nM |  |  | Cc1ccc(SC2(Cc3cccc(Oc4cccc(Cl)c4)c3)SC(=O)NC2=O)cc1 (stereo not drawn) [Example 25, 5-[3-(3-Chlorophenoxy)benzyl]-5-(4-methylbenzenesulfanyl)thiazolidine-2,4-dione]
6000 nM |  |  | Cc1ccc(S(=O)(=O)C2(Cc3cccc(C4(c5cccs5)OCCO4)c3)SC(=O)NC2=O)cc1 (stereo not drawn) [Example 26, 5-[3-(2-thiophen-2-yl[1,3]dioxolan-2-yl)benzyl]-5-(4-methylbenzenesulfonyl)thiazolidine-2,4-dione]
